# Results taken from PMC9557727, “How an assembly factor enhances covalent FAD attachment to the flavoprotein subunit of complex II” (The Journal of Biological Chemistry, 2022).
# Read-outs that look alike come from different tables or passages of the source.
# Tests used:
# E. coli apo-SdhA = target: T1, E. coli apo-SdhA (Escherichia coli, UniProt P0AC41); assay: biochemical; assay type: biochemical; settings: for Covalent FAD attachment to apo-SdhA, SdhE-dependent: +SdhE 10.4 μM; for Covalent FAD attachment to apo-SdhA, SdhE-dependent / Covalent FAD attachment to apo-SdhA, SdhE-independent: ligand 20 mM
# T1 construct: His6 (N); made in house; host or cells: E. coli RP437 ΔsdhE (RP-E), plasmid pCA24N-SdhA
# Protocol: (§1) Unless specified, the reaction was performed in 50 mM potassium phosphate (pH 7.0) at 30 °C for 1 h. […] The reaction was started after addition of the appropriate flavinylation-promoting ligand at the as-indicated concentration. At different time points, the samples were mixed with 4× SDS loading buffer (Bio-Rad), and the sample loaded onto an SDS-PAGE gel (Bio-Rad; Any KdA). Following protein separation, the gel was incubated in 10% acetic acid/20% ethanol for 5 min. Upon illumination with UV light, complex II flavinylated flavoprotein is visible because of the fluorescence of the covalently bound flavin. The in-gel fluorescence of covalently attached FAD was detected using a Safe Imager 2.0 blue-light transilluminator (Thermo Fisher Scientific). The gel was then rinsed with water for 5 min and stained with Instant Blue stain (Expedeon). ImageJ (National Institutes of Health) software was used for quantification of covalently bound FAD levels and relative protein ratios. The isolated holo-SdhA/FrdA or SDHA–SDHAF2 complex were used as 100% covalent flavinylated controls. […] To do that, upon addition of fumarate, the sample (200 μl) was quickly mixed and filled into an automatic pipette. Each sample (15 μl) was then injected into a vial containing 5 μl of 4× SDS loading gel. This allowed collection of time points that are at 10 to 15 s intervals.
# E. coli apo-FrdA = target: T2, E. coli apo-FrdA (Escherichia coli, UniProt P00363); assay type: biochemical; settings: ligand 20 mM, FAD 100 μM, 1 h, 30 °C; for Covalent FAD attachment to apo-FrdA, SdhE-dependent: +SdhE 10.4 μM
# T2 construct: His6 (N); made in house; host or cells: E. coli RP437 ΔsdhE (RP-E), plasmid pCA24N-FrdA
# Protocol: as §1
# [1] = system: Thermus thermophilus succinate dehydrogenase; settings: no sdhE gene; cited from earlier work
# human apo-SDHA [2] = target: T3, human apo-SDHA (Homo sapiens, UniProt P31040); assay: In vitro covalent flavinylation of human apo-SDHA; assay type: biochemical
# T3 construct: His6 (N); made in house; host or cells: E. coli BL21(DE3), plasmid pQE-hSDHA
# Protocol: as §1
# [3] = parameters: method as in PMID 4752947, PMID 6263261, PMID 15884941; settings: free FAD in solution; cited from earlier work
# apo-SdhA [4] = target: T4, apo-SdhA (Escherichia coli, UniProt P0AC41); assay type: biochemical; parameters: His6 (N); made in house; host or cells: apo-SdhA: E. coli RP437 ΔsdhE (pCA24N-SdhA); settings: 30 min at 37 °C; FAD 100 μM, SdhE 10.4 μM
# Target sequence in this assay (P64559 whole entry): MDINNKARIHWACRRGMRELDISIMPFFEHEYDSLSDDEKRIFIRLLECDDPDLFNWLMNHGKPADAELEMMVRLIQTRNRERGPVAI
# Target sequence in this assay (P0AC41 whole entry): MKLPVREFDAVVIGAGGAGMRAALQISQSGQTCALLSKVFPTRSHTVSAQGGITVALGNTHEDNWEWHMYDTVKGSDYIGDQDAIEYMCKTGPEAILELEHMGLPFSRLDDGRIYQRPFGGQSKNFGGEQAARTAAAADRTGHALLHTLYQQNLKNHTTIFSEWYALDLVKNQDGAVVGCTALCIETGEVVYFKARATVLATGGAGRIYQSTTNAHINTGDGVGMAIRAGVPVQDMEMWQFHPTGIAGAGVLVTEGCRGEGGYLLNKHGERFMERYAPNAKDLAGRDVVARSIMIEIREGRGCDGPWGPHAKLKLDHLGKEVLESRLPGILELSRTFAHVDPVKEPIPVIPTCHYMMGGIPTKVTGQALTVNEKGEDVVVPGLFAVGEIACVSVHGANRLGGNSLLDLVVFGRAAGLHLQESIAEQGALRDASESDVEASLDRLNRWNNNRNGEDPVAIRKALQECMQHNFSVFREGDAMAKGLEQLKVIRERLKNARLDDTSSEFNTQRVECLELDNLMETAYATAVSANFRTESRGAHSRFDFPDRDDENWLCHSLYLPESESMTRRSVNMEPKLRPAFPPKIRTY
# Protocol: Apo-SdhA (2.8 μM) or apo-SDHA (4.3 μM) in 40 mM Hepes (pH 7.5) was incubated at 37 °C as follows: (1) no addition; (2) FAD (100 μM); (3) the assembly factors SdhE (10.4 μM) or SDHAF2 (8.4 μM); and (4) FAD (100 μM) plus appropriate assembly factors at the aforementioned concentrations. The incubation time was 15 min for SDHA and 30 min for SdhA. Corresponding control samples (with no additions) were held at 4 °C for the same time. After the incubation, the samples were transferred to 4 °C, and to all samples, including the control, either FAD and/or the assembly factor was added so that each sample contains 100 μM FAD and the appropriate assembly factor. Then 0.5 mM fumarate is added to each sample to initiate the flavinylation reaction. After 30 min incubation at 30 °C, 4× SDS sample buffer was added, and then in-gel fluorescence was determined as described previously.
# apo-SdhA [5] = target: T4, apo-SdhA; assay: Determination of Kd for FAD by ultrafiltration; assay type: binding; parameters: His6 (N); made in house; host or cells: E. coli RP437 ΔsdhE (RP-E), plasmid pCA24N-SdhA; settings: 50 mM Hepes pH 7.0, 21 °C
# Protocol: The method is adapted from Mortarino et al. ([36]). […] The exact volume and the concentration of free flavin (ε^450 = 11.3 mM^−1 cm^−1) in the filtrate was measured, and it is assumed the free flavin (FAD^free) concentrations are the same in the filtrate and concentrated fractions. The total FAD in the concentrated fraction was calculated, and the excess over FAD^free corresponded to SdhA–noncovalent FAD. The Kd = [FAD^free][apo-SdhA]/[SdhA–FAD] was calculated from the amount of apo-SdhA determined by total protein concentration. The data are expressed as mean ± SD of four to five independent measurements.
# Target sequence in this assay (P0AC41 whole entry): as above
# [6] = system: Sulfolobus tokodaii succinate dehydrogenase; settings: no sdhE gene; cited from earlier work
# human apo-SDHA [7] = target: T3, human apo-SDHA; parameters: method as in PMID 32887801; settings: cited from earlier work
# holo-SdhA–SdhE = target: holo-SdhA–SdhE; parameters: method as in PMID 29348404; settings: read-out: Kd for fumarate, holo-SdhA–SdhE complex; holo-SdhA with covalent FAD; cited from earlier work
# apo-SdhA [8] = target: T4, apo-SdhA; assay: Reduction/oxidation of FAD during SdhE-dependent flavinylation (absorbance at 452 nm); assay type: biochemical; parameters: His6 (N); made in house; host or cells: apo-SdhA: E. coli RP437 ΔsdhE (pCA24N-SdhA); settings: 10 mM fumarate; 25 μM apo-SdhA, 20 μM FAD, 40 μM SdhE, 30 °C
# Protocol: Spectral measurements and kinetics were performed by using an Agilent […] UV–visible spectrophotometer. For kinetic measurements, whole spectra (1 nm increments) were collected during the reaction at 1 to 5 s intervals.
# Target sequence in this assay (P64559 whole entry): as the sequence (P64559 whole entry) above
# Target sequence in this assay (P0AC41 whole entry): as the sequence (P0AC41 whole entry) above
# apo-SdhA [9] = target: T4, apo-SdhA; assay: Hydrogen peroxide formation upon covalent flavinylation of SdhA (Amplex UltraRed); assay type: biochemical; parameters: His6 (N); made in house; host or cells: apo-SdhA: E. coli RP437 ΔsdhE (pCA24N-SdhA); settings: apo-SdhA 2.8 μM, FAD 2.5 μM, SdhE 4.8 μM
# Protocol: Upon covalent attachment, the flavin in SdhA became reduced and can be reoxidized by oxygen with formation of hydrogen peroxide. Amplex UltraRed was used to monitor the hydrogen peroxide formed. […] The reaction was started by addition of either 10 μM or 10 mM fumarate and hydrogen peroxide monitored by following the oxidation of Amplex UltraRed (567 nm) using an Agilent 8453 spectrophotometer.
# Target sequence in this assay (P64559 whole entry): as the sequence (P64559 whole entry) above
# Target sequence in this assay (P0AC41 whole entry): as the sequence (P0AC41 whole entry) above
# [10] = +SdhE, 50 mM potassium phosphate pH 7.0, 0.1 mM FAD, 30 °C
# [11] = read-out: k, ligand concentration for half-maximal flavinylation after 1 h incubation, +SdhE, 50 mM potassium phosphate pH 7.0, 0.1 mM FAD, 30 °C, 1 h
# T3 sequence (P31040 43-664): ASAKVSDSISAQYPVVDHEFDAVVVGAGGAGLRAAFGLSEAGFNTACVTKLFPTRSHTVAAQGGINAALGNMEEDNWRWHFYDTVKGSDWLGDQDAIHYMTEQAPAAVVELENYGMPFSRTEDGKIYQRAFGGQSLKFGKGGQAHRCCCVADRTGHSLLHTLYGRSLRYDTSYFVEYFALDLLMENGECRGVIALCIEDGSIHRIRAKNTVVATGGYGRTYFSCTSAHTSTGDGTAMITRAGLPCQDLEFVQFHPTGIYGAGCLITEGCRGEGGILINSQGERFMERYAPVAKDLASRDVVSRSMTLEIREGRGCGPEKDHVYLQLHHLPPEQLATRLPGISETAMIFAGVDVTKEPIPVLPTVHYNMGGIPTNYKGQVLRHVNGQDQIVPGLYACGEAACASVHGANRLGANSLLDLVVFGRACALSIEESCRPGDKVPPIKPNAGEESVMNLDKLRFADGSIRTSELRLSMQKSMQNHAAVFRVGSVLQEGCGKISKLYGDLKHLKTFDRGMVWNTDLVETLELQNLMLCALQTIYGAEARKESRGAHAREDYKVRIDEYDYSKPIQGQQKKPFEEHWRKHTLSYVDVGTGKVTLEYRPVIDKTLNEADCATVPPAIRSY
# T1 sequence (P0AC41 whole entry): as the sequence (P0AC41 whole entry) above
# T2 sequence (P00363 whole entry): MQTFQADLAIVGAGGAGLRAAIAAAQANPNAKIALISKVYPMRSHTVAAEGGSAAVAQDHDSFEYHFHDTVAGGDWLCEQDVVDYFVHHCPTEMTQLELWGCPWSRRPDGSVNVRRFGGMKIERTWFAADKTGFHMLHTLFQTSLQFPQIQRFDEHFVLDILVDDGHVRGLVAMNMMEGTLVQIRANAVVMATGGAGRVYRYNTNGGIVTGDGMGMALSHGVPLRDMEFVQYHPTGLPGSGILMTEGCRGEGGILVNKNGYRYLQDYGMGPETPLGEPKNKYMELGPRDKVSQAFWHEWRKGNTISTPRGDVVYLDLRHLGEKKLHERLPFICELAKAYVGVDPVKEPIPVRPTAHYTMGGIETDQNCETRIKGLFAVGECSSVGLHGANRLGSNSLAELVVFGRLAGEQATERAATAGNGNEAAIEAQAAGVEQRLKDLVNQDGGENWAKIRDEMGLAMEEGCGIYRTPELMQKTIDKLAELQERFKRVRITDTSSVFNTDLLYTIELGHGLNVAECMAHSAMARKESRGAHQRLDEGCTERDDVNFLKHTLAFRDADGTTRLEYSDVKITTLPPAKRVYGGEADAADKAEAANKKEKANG
Compound,"Covalent FAD attachment to apo-SdhA, SdhE-dependent (E. coli apo-SdhA; FAD 100 μM, 1 h, 30 °C)","Covalent FAD attachment to apo-FrdA, SdhE-dependent (E. coli apo-FrdA)","Covalent FAD attachment to apo-FrdA, SdhE-independent (E. coli apo-FrdA)",Initiation of flavinylation in Thermus thermophilus [1],"K, apparent first-order rate constant of covalent flavinylation, +SdhE (E. coli apo-SdhA; [10])","Covalent FAD attachment to apo-SdhA, SdhE-independent (E. coli apo-SdhA; −SdhE, FAD 100 μM, 1 h, 30 °C)",other results
O=C(O)CC(=O)C(=O)O [oxaloacetate],high levels,high levels,partially effective,quite proficient,,,
CC(=O)C(=O)O [Pyruvate],able to induce,able to induce,,,,,
Cc1cc2nc3c(=O)[nH]c(=O)nc-3n(C[C@H](O)[C@H](O)[C@H](O)COP(=O)(O)OP(=O)(O)OC[C@H]3O[C@@H](n4cnc5c(N)ncnc54)[C@H](O)[C@@H]3O)c2cc1C [FAD],,,,,,,"FAD requirement for maximum flavinylation of SdhA (E. coli apo-SdhA; +SdhE, fumarate 10 mM, apo-SdhA 6 μM, 1 h, 30 °C): stoichiometric ratios of FAD to apo-SdhA; EC50 (E. coli apo-SdhA; −SdhE, fumarate 10 mM, apo-SdhA 6 μM, 1 h, 30 °C, read-out: FAD concentration for half-maximal flavinylation of SdhA): ~20 µM; Increase in FAD concentration required for 50% flavinylation without SDHAF2 versus SDHAF2-dependent reaction (human apo-SDHA [2]; fumarate-only SDHA flavinylation): fivefold; Redox potential Em of free FAD [3]: −219 mV; Protection of apo-SdhA against thermal inactivation of the flavinylation reaction (apo-SdhA [4]): does not afford enhanced stability and protection; Kd (apo-SdhA [5]; read-out: Estimated apparent Kd for FAD, apo-SdhA in the presence of SdhE, +SdhE 12.5 μM): 1.3 ± 0.5 µM; Kd (apo-SdhA [5]; without SdhE, read-out: Estimated apparent Kd for FAD, apo-SdhA alone): 14.4 ± 1.7 µM"
"O=C(O)CC(O)C(=O)O (centres unmarked) [Malate, malate]",high levels,high levels,,quite proficient,0.3 min⁻¹,partially effective,EC50 (E. coli apo-SdhA): 10 µM
"O=C(O)CCC(=O)O [Succinate, succinate]",high levels,high levels,,quite proficient,0.7 min⁻¹,partially effective,EC50 (E. coli apo-SdhA; [11]): 1 µM; Initiation of flavinylation in Sulfolobus tokodaii [6]: proficient flavinylation
O=C(O)CC(O)(CC(=O)O)C(=O)O [citrate],able to induce,able to induce,,,,,
O=C(O)/C=C/C(=O)O [Fumarate],high levels,high levels,complete,quite proficient,1.7 min⁻¹,complete,"Fumarate concentration giving complete flavinylation of apo-SdhA (E. coli apo-SdhA; +SdhE, apo-SdhA 6 μM, FAD 100 μM, 1 h, 30 °C): ~1 µM; EC50 (E. coli apo-SdhA; [11]): < 1 µM; k, apparent first-order rate constant of covalent flavinylation, −SdhE (E. coli apo-SdhA; −SdhE, 50 mM potassium phosphate pH 7.0, 0.1 mM FAD, 30 °C): 0.1 min⁻¹; k, apparent first-order rate constant of covalent flavinylation, −SdhE (E. coli apo-SdhA; −SdhE, 50 mM potassium phosphate pH 7.0, 0.1 mM FAD, 30 °C, listed as fumarate): 0.095 min⁻¹; Saturation level of SDHAF2-independent flavinylation relative to SDHAF2-dependent flavinylation (human apo-SDHA [2]; −SDHAF2, 60 mM fumarate, 100 μM FAD, time course): ~70%; k, rate of covalent flavinylation of SDHA, − SDHAF2 (human apo-SDHA [2]; −SDHAF2, 60 mM fumarate, 100 μM FAD, assuming 70% of protein capable of flavinylation): 0.032 min⁻¹; EC50 (human apo-SDHA [2]; −SDHAF2, fumarate concentration for 50% flavinylation, read-out: K (fum), − SDHAF2): 12000 µM; SDHAF2-independent flavinylation of SDHA relative to flavinylation in the presence of SDHAF2 (human apo-SDHA [2]; −SDHAF2, ligand 20 mM, FAD 100 μM, 1 h, 37 °C): ~40%; EC50 (human apo-SDHA [7]; +SDHAF2, read-out: Concentration of fumarate needed to achieve 50% flavinylation, with SDHAF2): 16 µM; k, rate of covalent flavinylation of SDHA, + SDHAF2 (human apo-SDHA [7]): 0.15 min⁻¹; Kd (holo-SdhA–SdhE): 64 µM; Initiation of flavinylation in Sulfolobus tokodaii [6]: proficient flavinylation; k app, fast phase (reduction of FAD) (apo-SdhA [8]): ~7 min⁻¹; k app, second slower phase (reoxidation of reduced flavin) (apo-SdhA [8]): ~0.1 min⁻¹; Hydrogen peroxide formation on induction of flavinylation (apo-SdhA [9]; 10 μM fumarate): significant increase in hydrogen peroxide; Hydrogen peroxide formation on induction of flavinylation (apo-SdhA [9]; 10 mM fumarate): very low release of hydrogen peroxide"
CC(=O)O [acetate],~30%,~30%,,,,,
"N[C@@H](CC(=O)O)C(=O)O [Aspartate, L-aspartate]",high levels,high levels,partially effective,,0.1 min⁻¹,,EC50 (E. coli apo-SdhA): 26 µM
O=C(O)CC(=O)O [malonate],~30%,~30%,,,,,
